The values that follow come from patent US12643871B2, “Aryl formamide compound containing chiral sulfur oxide or salt thereof, preparation method, herbicidal composition and use thereof” (Qingdao Kingagroot Chemical Compound Co., Ltd., priority 2019, dated 2026).

Holding throughout (assay): Weeding effect in post-emergence stage
What all share (assay type): in vivo
What all share (settings): 250 g/ha; 2 leaf stage; 15 days after application; fresh weight control rate

In experiment [1] the test system is Amaranthus retroflexus. The method in brief:
(§1)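 Two-leaf-stage pot plants, spray-tower application at 500/250/125/60/30/15 g/ha with methyl oleate EC synergist; fresh weight control level (0–5) read at 15 days post-treatment, three replicates averaged.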

Experiment [2] concerns Abutilon theophrasti. The method in brief:
as §1

Experiment [3] has as its system Digitaria sanguinalis. The method in brief:
as §1

The test system of experiment [4] is Echinochloa crusgali. The method in brief: as §1
The subject of experiment [5] is Setaria viridis. A digest of the protocol:
as §1

In the case of `COc1c(C(=O)Nc2nnc(C)o2)ccc(C(F)(F)F)c1[S@+]([O-])CCCCl` [Compound 333], in experiment [1], the “weeding effect in post-emergence stage, activity level (growth control rate), Amaranthus retroflexus” value (“weeding effect … Amaranthus retroflexus” for short) is 5 (Level 5: growth control rate is above 85%). Further, in experiment [2], the “weeding effect in post-emergence stage, activity level (growth control rate), Abutilon theophrasti” value (“weeding effect … Abutilon theophrasti” below) is recorded as 5 (Level 5: growth control rate is above 85%). Besides, the “weeding effect in post-emergence stage, activity level (growth control rate), Digitaria sanguinalis” value (“weeding effect … Digitaria sanguinalis” for short) in experiment [3] was 5 (Level 5: growth control rate is above 85%). Further, the “weeding effect in post-emergence stage, activity level (growth control rate), Echinochloa crusgali” value (shortened to “weeding effect … Echinochloa crusgali”) in experiment [4] was 5 (Level 5: growth control rate is above 85%). Also, in experiment [5], the “weeding effect in post-emergence stage, activity level (growth control rate), Setaria viridis” value (shortened to “weeding effect … Setaria viridis”) is reported as 5 (Level 5: growth control rate is above 85%).
As for `COc1c(C(=O)Nc2nnc(C)o2)ccc(C(F)(F)F)c1[S@+]([O-])CCO` [Compound 334], in experiment [1], the “weeding effect … Amaranthus retroflexus” value is 5 (Level 5: growth control rate is above 85%). Moreover, the “weeding effect … Abutilon theophrasti” value in experiment [2] was 5 (Level 5: growth control rate is above 85%). The “weeding effect … Digitaria sanguinalis” value in experiment [3] is on record as 5 (Level 5: growth control rate is above 85%). Besides, the “weeding effect … Echinochloa crusgali” value in experiment [4] is on record as 5 (Level 5: growth control rate is above 85%). Besides, in experiment [5], the “weeding effect … Setaria viridis” value is reported as 5 (Level 5: growth control rate is above 85%).
As for `COc1c(C(=O)Nc2nnc(C)o2)ccc(C(F)(F)F)c1[S@+]([O-])CCCO` [Compound 335], in experiment [1], the “weeding effect … Amaranthus retroflexus” value is given as 5 (Level 5: growth control rate is above 85%). The “weeding effect … Abutilon theophrasti” value in experiment [2] is listed as 5 (Level 5: growth control rate is above 85%). Further, in experiment [3], the “weeding effect … Digitaria sanguinalis” value is reported as 5 (Level 5: growth control rate is above 85%). Further, the “weeding effect … Echinochloa crusgali” value in experiment [4] is listed as 5 (Level 5: growth control rate is above 85%). The “weeding effect … Setaria viridis” value in experiment [5] is 5 (Level 5: growth control rate is above 85%).
As to `COc1c(C(=O)Nc2nnc(C)o2)ccc(C(F)(F)F)c1[S@+]([O-])CC(C)O` (stereo partly shown) [Compound 336], the “weeding effect … Amaranthus retroflexus” value in experiment [1] is 5 (Level 5: growth control rate is above 85%). In addition, in experiment [2], the “weeding effect … Abutilon theophrasti” value is 5 (Level 5: growth control rate is above 85%). In addition, the “weeding effect … Digitaria sanguinalis” value in experiment [3] is listed as 5 (Level 5: growth control rate is above 85%). Besides, in experiment [4], the “weeding effect … Echinochloa crusgali” value is given as 5 (Level 5: growth control rate is above 85%). The “weeding effect … Setaria viridis” value in experiment [5] is recorded as 5 (Level 5: growth control rate is above 85%).
For the compound `COc1c(C(=O)Nc2nnc(C)o2)ccc(C(F)(F)F)c1[S@+]([O-])CC#N` [Compound 337], in experiment [1], the “weeding effect … Amaranthus retroflexus” value is given as 5 (Level 5: growth control rate is above 85%). In experiment [2], the “weeding effect … Abutilon theophrasti” value is 5 (Level 5: growth control rate is above 85%). Moreover, the “weeding effect … Digitaria sanguinalis” value in experiment [3] is recorded as 5 (Level 5: growth control rate is above 85%). The “weeding effect … Echinochloa crusgali” value in experiment [4] is reported as 5 (Level 5: growth control rate is above 85%). In addition, the “weeding effect … Setaria viridis” value in experiment [5] is 5 (Level 5: growth control rate is above 85%).
On to `COc1c(C(=O)Nc2nnc(C)o2)ccc(C(F)(F)F)c1[S@+]([O-])CCC#N` [Compound 338], for which, in experiment [1], the “weeding effect … Amaranthus retroflexus” value was 5 (Level 5: growth control rate is above 85%). Besides, the “weeding effect … Abutilon theophrasti” value in experiment [2] is reported as 5 (Level 5: growth control rate is above 85%). In experiment [3], the “weeding effect … Digitaria sanguinalis” value is given as 5 (Level 5: growth control rate is above 85%). The “weeding effect … Echinochloa crusgali” value in experiment [4] is listed as 5 (Level 5: growth control rate is above 85%). The “weeding effect … Setaria viridis” value in experiment [5] is 5 (Level 5: growth control rate is above 85%).
`COc1c(C(=O)Nc2nnc(C)o2)ccc(C(F)(F)F)c1[S@+]([O-])CCCN` [Compound 339]: in experiment [1], the “weeding effect … Amaranthus retroflexus” value is recorded as 5 (Level 5: growth control rate is above 85%). Also, the “weeding effect … Abutilon theophrasti” value in experiment [2] is reported as 5 (Level 5: growth control rate is above 85%). Further, the “weeding effect … Digitaria sanguinalis” value in experiment [3] was 5 (Level 5: growth control rate is above 85%). For the same compound, the “weeding effect … Echinochloa crusgali” value in experiment [4] is recorded as 5 (Level 5: growth control rate is above 85%). Moreover, in experiment [5], the “weeding effect … Setaria viridis” value is 5 (Level 5: growth control rate is above 85%).
With `COc1c(C(=O)Nc2nnc(C)o2)ccc(C(F)(F)F)c1[S@+]([O-])CCN(C)C` [Compound 340], the “weeding effect … Amaranthus retroflexus” value in experiment [1] is listed as 5 (Level 5: growth control rate is above 85%). In addition, in experiment [2], the “weeding effect … Abutilon theophrasti” value is recorded as 5 (Level 5: growth control rate is above 85%). Moreover, the “weeding effect … Digitaria sanguinalis” value in experiment [3] is 5 (Level 5: growth control rate is above 85%). In addition, the “weeding effect … Echinochloa crusgali” value in experiment [4] was 5 (Level 5: growth control rate is above 85%). Also, the “weeding effect … Setaria viridis” value in experiment [5] is 5 (Level 5: growth control rate is above 85%).
As to `COc1c(C(=O)Nc2nnc(C)o2)ccc(C(F)(F)F)c1[S@+]([O-])CC(=O)O` [Compound 341], the “weeding effect … Amaranthus retroflexus” value in experiment [1] is recorded as 5 (Level 5: growth control rate is above 85%). Besides, the “weeding effect … Abutilon theophrasti” value in experiment [2] is 5 (Level 5: growth control rate is above 85%). For the same compound, in experiment [3], the “weeding effect … Digitaria sanguinalis” value is 5 (Level 5: growth control rate is above 85%). Also, the “weeding effect … Echinochloa crusgali” value in experiment [4] is 5 (Level 5: growth control rate is above 85%). Besides, in experiment [5], the “weeding effect … Setaria viridis” value is recorded as 5 (Level 5: growth control rate is above 85%).
With `COC[S@+]([O-])c1c(C(F)(F)F)ccc(C(=O)Nc2nnc(C)o2)c1OC` [Compound 342], the “weeding effect … Amaranthus retroflexus” value in experiment [1] is given as 5 (Level 5: growth control rate is above 85%). Further, the “weeding effect … Abutilon theophrasti” value in experiment [2] is 5 (Level 5: growth control rate is above 85%). In experiment [3], the “weeding effect … Digitaria sanguinalis” value is 5 (Level 5: growth control rate is above 85%). Moreover, the “weeding effect … Echinochloa crusgali” value in experiment [4] is reported as 5 (Level 5: growth control rate is above 85%). Further, the “weeding effect … Setaria viridis” value in experiment [5] was 5 (Level 5: growth control rate is above 85%).
As for `CCOC[S@+]([O-])c1c(C(F)(F)F)ccc(C(=O)Nc2nnc(C)o2)c1OC` [Compound 343], the “weeding effect … Amaranthus retroflexus” value in experiment [1] is given as 5 (Level 5: growth control rate is above 85%). Moreover, the “weeding effect … Abutilon theophrasti” value in experiment [2] was 5 (Level 5: growth control rate is above 85%). In addition, in experiment [3], the “weeding effect … Digitaria sanguinalis” value was 5 (Level 5: growth control rate is above 85%). For the same compound, the “weeding effect … Echinochloa crusgali” value in experiment [4] is on record as 5 (Level 5: growth control rate is above 85%). Also, in experiment [5], the “weeding effect … Setaria viridis” value is recorded as 5 (Level 5: growth control rate is above 85%).
Turning to `COCC[S@@+]([O-])c1c(C(F)(F)F)ccc(C(=O)Nc2nnc(C)o2)c1OC` [Compound 344], the “weeding effect … Amaranthus retroflexus” value in experiment [1] is 5 (Level 5: growth control rate is above 85%). The “weeding effect … Abutilon theophrasti” value in experiment [2] is on record as 5 (Level 5: growth control rate is above 85%). Further, in experiment [3], the “weeding effect … Digitaria sanguinalis” value is listed as 5 (Level 5: growth control rate is above 85%). In addition, the “weeding effect … Echinochloa crusgali” value in experiment [4] is listed as 5 (Level 5: growth control rate is above 85%). Also, in experiment [5], the “weeding effect … Setaria viridis” value is on record as 5 (Level 5: growth control rate is above 85%).
Turning to `COCCC[S@@+]([O-])c1c(C(F)(F)F)ccc(C(=O)Nc2nnc(C)o2)c1OC` [Compound 345], the “weeding effect … Amaranthus retroflexus” value in experiment [1] is 5 (Level 5: growth control rate is above 85%). For the same compound, the “weeding effect … Abutilon theophrasti” value in experiment [2] is on record as 5 (Level 5: growth control rate is above 85%). Also, the “weeding effect … Digitaria sanguinalis” value in experiment [3] is listed as 5 (Level 5: growth control rate is above 85%). In addition, the “weeding effect … Echinochloa crusgali” value in experiment [4] is recorded as 5 (Level 5: growth control rate is above 85%). Besides, the “weeding effect … Setaria viridis” value in experiment [5] is 5 (Level 5: growth control rate is above 85%).
As to `COc1c(C(=O)Nc2nnc(C)o2)ccc(C(F)(F)F)c1[S@+]([O-])C1COC1` [Compound 346], the “weeding effect … Amaranthus retroflexus” value in experiment [1] is 5 (Level 5: growth control rate is above 85%). In addition, the “weeding effect … Abutilon theophrasti” value in experiment [2] is on record as 5 (Level 5: growth control rate is above 85%). Also, in experiment [3], the “weeding effect … Digitaria sanguinalis” value was 5 (Level 5: growth control rate is above 85%). The “weeding effect … Echinochloa crusgali” value in experiment [4] is given as 5 (Level 5: growth control rate is above 85%). In addition, the “weeding effect … Setaria viridis” value in experiment [5] is 5 (Level 5: growth control rate is above 85%).
